Data on 26 compounds can be found in US6855730B2, “3-methylidenyl-2-indolinone modulators of protein kinase” (Sugen, Inc., priority 1998, dated 2005).

Each structure is given as a SMILES string.

For the first test, the target named is Myc-GyrB-FGFR fusion protein (Homo sapiens, UniProt P11362). As to the kind of experiment: Biochemical FGFR assay (ELISA). The following applies: bio fgfR1 IC50.
Myc-GyrB-FGFR fusion protein, sequence (P11362 478-767 limits assumed): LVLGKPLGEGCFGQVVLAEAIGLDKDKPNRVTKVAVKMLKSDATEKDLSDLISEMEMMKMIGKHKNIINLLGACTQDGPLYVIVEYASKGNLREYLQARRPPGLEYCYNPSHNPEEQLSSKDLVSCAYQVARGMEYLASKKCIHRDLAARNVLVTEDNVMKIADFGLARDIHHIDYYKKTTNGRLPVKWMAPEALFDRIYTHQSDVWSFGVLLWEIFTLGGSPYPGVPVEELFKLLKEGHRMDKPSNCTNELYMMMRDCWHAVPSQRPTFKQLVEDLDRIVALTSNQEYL
For orientation: IC50 means the concentration needed to halve the response being measured. As for `Cc1c[nH]c(/C=C2\C(=O)Nc3ccccc32)c1CCC(=O)O` [Example 215, 3-[4-Methyl-2-(2-oxo-1,2-dihydroindol-3-ylidenemethyl)-1H-pyrrol-3-yl]-propionic acid], the half-maximal inhibitory concentration (IC50) amounted to 70 nM.

The test is the same for the next values; noted with them: read-out: bio fgfR1 IC50.
Turning to `CCOC(=O)c1c(C)[nH]c(/C=C2\C(=O)Nc3ccc(Br)cc32)c1CCC(=O)O` [Compound 114, 5-(5-Bromo-2-oxo-1,2-dihydroindol-3-ylidenemethyl)-4-(2-carboxyethyl)-2-methyl-1H-pyrrole-3-carboxylic acid ethyl ester], the 50% inhibitory concentration (IC50) was 4260 nM.
Same read-out and setting: next, `Cc1cc(CCC(=O)O)c(/C=C2\C(=O)Nc3ccc(Br)cc32)[nH]1` [Compound 116, 3-[2-(5-Bromo-2-oxo-1,2-dihydroindol-3-ylidenemethyl)-5-methyl-1H-pyrrol-3-yl]-propionic acid]: 290 nM; `NS(=O)(=O)c1ccc2c(c1)/C(=C/c1c[nH]c3ccccc13)C(=O)N2` [Example 172, 3-(1H-Indol-3-ylmethylene)-2-oxo-2,3-dihydro-1H-indole-5-sulfonic acid amide]: 280 nM; `CNS(=O)(=O)c1ccc2c(c1)/C(=C/c1cc3ccccc3[nH]1)C(=O)N2` [Example 173, 3-(1H-Indol-2-ylmethylene)-2-oxo-2,3-dihydro-1H-indole-5-sulfonic acid methylamide]: 290 nM.
Same read-out and setting: next, `O=C1Nc2ccc(C(=O)O)cc2/C1=C/c1c[nH]c2ccccc12` [Example 174, 3-(1H-Indol-3-ylmethylene)-2-oxo-2,3-dihydro-1H-indole-5-carboxylic acid]: 410 nM.
Still for that read-out and setting: with `O=C1Nc2ccc(C(=O)O)cc2/C1=C/c1ccc2[nH]ccc2c1` [Example 177, 3-(1H-Indol-5-ylmethylene)-2-oxo-2,3-dihydro-1H-indole-5-carboxylic acid] the figure was 1600 nM; with `Nc1ccc2c(c1)/C(=C/c1ccc3[nH]ccc3c1)C(=O)N2` [Example 179, 5-Amino-3-(1H-indol-5-ylmethylene)-1,3-dihydro-indol-2-one], 4520 nM; with `Cc1c(/C=C2\C(=O)Nc3ccc(N)cc32)[nH]c2ccccc12` [Example 180, 5-Amino-3-(3-methyl-1H-indol-2-ylmethylene)-1,3-dihydroindol-2-one], 5420 nM.
`Cc1[nH]c2ccccc2c1/C=C1\C(=O)Nc2ccc(C(=O)O)cc21` [Example 182, 3-(2-Methyl-1H-indol-3-ylmethylene)-2-oxo-2,3-dihydro-1H-indole-5-carboxylic acid]: the IC50 worked out at 5940 nM.
The same measure, in the same setting: with `Cc1[nH]c2ccccc2c1/C=C1\C(=O)Nc2ccc(N)cc21` [Example 187, 5-Amino-3-(2-methyl-1H-indol-3-ylmethylene)-1,3-dihydroindol-2-one] the figure was 13800 nM.

The target in the next test is T1, human flk-1 (Homo sapiens, UniProt P35968).
T1 construct: host or cells: Flk-1/NIH cells (NIH fibroblasts)
T1 sequence (P35968 20-1356): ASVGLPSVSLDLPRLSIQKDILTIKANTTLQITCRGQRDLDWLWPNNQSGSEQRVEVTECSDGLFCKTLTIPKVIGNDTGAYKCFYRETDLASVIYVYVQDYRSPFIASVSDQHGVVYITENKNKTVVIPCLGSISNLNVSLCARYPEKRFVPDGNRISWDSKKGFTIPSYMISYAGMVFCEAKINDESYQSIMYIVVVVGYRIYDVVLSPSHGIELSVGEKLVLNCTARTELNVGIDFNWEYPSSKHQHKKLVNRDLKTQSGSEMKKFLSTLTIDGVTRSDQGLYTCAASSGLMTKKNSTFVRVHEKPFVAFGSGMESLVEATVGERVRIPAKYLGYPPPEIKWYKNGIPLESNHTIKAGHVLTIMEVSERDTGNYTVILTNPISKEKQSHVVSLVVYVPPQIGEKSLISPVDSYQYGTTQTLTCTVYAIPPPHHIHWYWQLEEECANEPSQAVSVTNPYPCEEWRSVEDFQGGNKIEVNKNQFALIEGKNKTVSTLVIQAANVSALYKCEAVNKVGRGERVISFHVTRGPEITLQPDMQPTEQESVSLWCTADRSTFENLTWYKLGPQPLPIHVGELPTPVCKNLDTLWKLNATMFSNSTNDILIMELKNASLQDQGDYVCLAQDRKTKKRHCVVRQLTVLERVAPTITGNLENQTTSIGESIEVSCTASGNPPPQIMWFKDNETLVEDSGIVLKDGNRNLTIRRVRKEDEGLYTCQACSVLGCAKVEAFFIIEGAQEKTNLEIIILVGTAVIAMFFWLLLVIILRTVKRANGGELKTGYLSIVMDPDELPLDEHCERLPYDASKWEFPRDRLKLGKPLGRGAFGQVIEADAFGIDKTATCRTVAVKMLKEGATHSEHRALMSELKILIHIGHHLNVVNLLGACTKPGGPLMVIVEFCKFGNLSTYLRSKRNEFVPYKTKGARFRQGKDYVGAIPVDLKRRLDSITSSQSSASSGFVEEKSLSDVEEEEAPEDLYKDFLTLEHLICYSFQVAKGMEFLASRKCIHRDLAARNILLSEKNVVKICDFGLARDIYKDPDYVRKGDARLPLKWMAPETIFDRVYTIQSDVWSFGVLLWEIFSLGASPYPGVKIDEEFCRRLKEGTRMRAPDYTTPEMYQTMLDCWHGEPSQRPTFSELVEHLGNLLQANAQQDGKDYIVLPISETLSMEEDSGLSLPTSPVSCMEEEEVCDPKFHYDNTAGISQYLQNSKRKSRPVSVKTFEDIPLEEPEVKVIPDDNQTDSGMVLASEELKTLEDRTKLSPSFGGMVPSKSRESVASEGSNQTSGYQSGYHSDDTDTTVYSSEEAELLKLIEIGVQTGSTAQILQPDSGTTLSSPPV
As to the kind of experiment: Biochemical FLK-1 assay (flk-1 autophosphorylation ELISA). Conditions: read-out: bio FLK1 IC50 (μM) % if inhibition at 100. Here is the method:
This assay evaluates flk-1 autophosphorylation activity in vitro using ELISA.
Materials And Reagents • 1. 15 cm tissue culture dishes • 2. Flk-1/NIH cells: NIH fibroblast line over-expressing human flk-1clone 3 (SUGEN, Inc., obtained from MPI, Martinsried, Germany). • 3. Growth medium: DMEM plus heat inactivated 10% FBS and 2 mM Glutamine (Gibco-BRL). • 4. Starvation medium: DMEM plus 0.5% heat-inactivated FBS, 2 mM Glutamine (Gibco-BRL). • 5. […] L4 or E38 monoclonal antibody specific for flk-1, Purified by Protein-A agarose affinity chromatography (SUGEN, Inc.). • 7. PBS (Dulbecco's Phosphate-Buffered Saline) Gibco Cat. No. 450-1300EB). • 8. HNTG (see BIOCHEMICAL FGFR for preparation). • 9. Pierce BCA protein determination kit. • 10. Blocking buffer • 11. TBST (pH 7.0) • 12. Kinase Buffer • 13. Kinase Stop Solution: 200 mM EDTA. • 14. […] AB kit (Vector Laboratories Cat. No. PK 4000). • 16. DMSO • 17. NUNC 96-well V bottom polypropylene plates (Applied Scientific Cat. No. AS-72092). • 18. Turbo-TMB (Pierce). • 19. Turbo-TMB stop solution: 1 M H2SO4. • 20. ATP (Sigma Cat. No. A-7699). • 21. 20% DMSO in TBS (pH 7.0). Procedure
Cell Growth and Lysate Preparation. • 1. Seed cell into growth medium and grow for 2-3 days to 90-100% confluency at 37° C. and 5% CO2.
2. Remove the medium and wash the cells twice with PBS. Lyse with HNTG lysis buffer. Collect all lysates and vortex mix them for 20-30 seconds. • 3. Remove insoluble material by centrifugation (5-10 min at about 10,000 ×g). • 4. Determine the protein concentration using BCA kit. • 5. Partition lysate into 1 mg aliquots, store at −80° C.
Assay Procedure • 1. Coat Corning 96-well ELISA plates with 2 μg/well purified L4 (or E 38) in 100 μl of PBS. Store overnight at […] • 2. Remove unbound proteins from wells by inverting the plate to remove the liquid. Wash one time with dH2O, pat plate on paper towel to remove excess liquid. • 3. Block plates with 150 μl blocking buffer per well. Incubate for 45-60 minutes with shaking at 4° C. • 4. Remove the blocking buffer and wash the ELISA plate three times with dH2O and one time with TBST. Pat plate on paper towel to remove excess liquid. • 5. Dilute lysate in PBS to give final concentration of 50 μg/100 μl. Add 100 μl of diluted lysate to each well. Incubate with shaking at 4° C. overnight. • 6. Remove unbound proteins from wells by inverting the plate. Wash as in step 4. • 7. Add 80 μl of kinase buffer to wells (90 μl to negative control wells). • 8. Dilute test compounds (normally 10-fold) into wells of a polypropylene plate containing 20% DMSO in TBS. • 9. Add 10 μl of the diluted compounds to the ELISA wells containing immobilized flk-1 and shake. Control wells receive no compounds. • 10. From stock 1 mM ATP, prepare 0.3 mM ATP solution in dH2O (alternatively, kinase buffer may be used). • 11. Add 10 μl of 0.3 mM ATP to all wells except the negative controls. Incubate for 60 min. at room temperature with shaking. • 12. After 1 hr stop the kinase reaction by adding 11 μl 200 mM EDTA. Shake for 1-2 min. • 13. Wash the ELISA plate 4 times with dH2O and twice with TBST. • 14. Add 100 μl of 1:5000 biotinylated 4G10:TBST to all wells. Incubate 45 min with shaking at room temperature. • 15. While the above is incubating, add 50 μl of solutions A & B from the ABC kit to 10 ml of TBST. These solutions must be combined approximately 30 min prior to use. • 16. Wash plates as in step 4. • 17. Add 100 μl of the preformed A & B complex to all wells. Incubate 30 min with shaking at room temperature. • 18. Wash plates as in step 4. • 19. Add 100 μl turbo-TMB. Shake at room temperature for 10-15 min. • 20. When the color in the positive control wells reaches an absorbance of about 0.35-0.4, stop the reaction with 100 μl of turbo-TMB stop solution. • 21. Read plates on Dynatech MR7000 ELISA reader, test filter: 450 nM, reference filter: 410 nM.
Regarding `COc1c(C(C)C)cc(/C=C2/C(=O)Nc3ccccc32)cc1C(C)C` [Example 1, 3-(3,5-Diisopropyl-4-methoxybenzylidene)-1,3-dihydroindol-2-one], the IC50 was greater than 50 µM.
On the same count and under the same terms, with `COc1c(C(C)C)cc(/C=C2/C(=O)Nc3ccc(Cl)cc32)cc1C(C)C` [Example 2, 5-Chloro-3-(3,5-diisopropyl-4-methoxybenzylidene)-1,3-dihydroindol-2-one] the figure was greater than 50 µM.
Still for that read-out and setting: with `CN(C)C(=O)CCc1c(/C=C2\C(=O)Nc3ccccc32)[nH]c2c1CCCC2` [Example 197, N,N-Dimethyl-3-[2-(2-oxo-1,2-dihydroindol-3-ylidenemethyl)-4,5,6,7-tetrahydro-1H-indol-3-yl]-propionamide] the figure was 2.1 µM; with `CN(C)CCCc1c(/C=C2\C(=O)Nc3ccccc32)[nH]c2c1CCCC2` [Example 198, 3-[3-(3-Dimethylaminopropyl)-4,5,6,7-tetrahydro-1H-indol-2-ylmethylene]-1,3-dihydroindol-2-one], 7.44 µM.
The same measure, in the same setting: with `NC(=O)CCc1c(/C=C2\C(=O)Nc3ccccc32)[nH]c2c1CCCC2` [Example 199, 3-[2-(2-Oxo-1,2-dihydroindol-3-ylidenemethyl)-4,5,6,7-tetrahydro-1H-indol-3-yl]-propionamide] the figure was 0.13 µM.
For the compound `O=C1Nc2ccccc2/C1=C/c1[nH]c2c(c1CCC(=O)N1CCOCC1)CCCC2` [Example 200, 3-[3-(3-Morpholin-4-yl-3-oxopropyl)-4,5,6,7-tetrahydro-1H-indol-2-ylmethylene]-1,3-dihydroindol-2-one], the IC50 came out at 0.97 µM.
On the same count and under the same terms, with `CNC(=O)CCc1c(/C=C2\C(=O)Nc3ccccc32)[nH]c2c1CCCC2` [Example 201, N-Methyl-3-[2-(2-oxo-1,2-dihydroindol-3-ylidenemethyl)-4,5,6,7-tetrahydro-1H-indol-3-yl]-propionamide] the figure was 0.16 µM.
Still for that read-out and setting: next, `O=C(CCc1c(/C=C2\C(=O)Nc3ccccc32)[nH]c2c1CCCC2)NCCN1CCOCC1` [Example 202, N-(2-Morpholin-4-ylethyl)-3-[2-(2-oxo-1,2-dihydroindol-3-ylidenemethyl)-4,5,6,7-tetrahydro-1H-indol-3-yl]-propionamide]: 0.63 µM.
For `CC(C)NS(=O)(=O)c1ccc2c(c1)C(=Cc1[nH]c3c(c1CCC(=O)O)CCCC3)C(=O)N2` [Example 208, 3-[2-(5-Isopropylaminosulfonyl-2-oxo-1,2-dihydroindol-3-ylidenemethyl)-4,5,6,7-tetrahydro-1H-indol-3-yl]-propionic acid], the IC50 was less than 0.78 µM.
As for `Cc1c[nH]c(/C=C2\C(=O)Nc3ccc(Cl)cc32)c1CCC(=O)O` [Example 216, 3-[2-(5-Chloro-2-oxo-1,2-dihydroindol-3-ylidenemethyl)-4-methyl-1H-pyrrol-3-yl]-propionic acid], the IC50 stood at 2.91 µM.
Turning to `COc1ccc2c(c1)NC(=O)/C2=C\c1[nH]cc(C)c1CCC(=O)O` [Example 217, 3-[2-(6-Methoxy-2-oxo-1,2-dihydroindol-3-ylidenemethyl)-4-methyl-1H-pyrrol-3-yl]-propionic acid], the IC50 amounted to 1.47 µM.
On the same count and under the same terms, with `Cc1c[nH]c(/C=C2\C(=O)Nc3cccc(C)c32)c1CCC(=O)O` [Example 218, 3-[2-(4-Methyl-2-oxo-1,2-dihydroindol-3-ylidenemethyl)-4-methyl-1H-pyrrol-3-yl]-propionic acid] the figure was 0.2 µM; with `Cc1c[nH]c(C=C2C(=O)Nc3cc(Cl)ccc32)c1CCC(=O)O` [Example 219, 3-[2-(6-Chloro-2-oxo-1,2-dihydroindol-3-ylidenemethyl)-4-methyl-1H-pyrrol-3-yl]-propionic acid], 0.19 µM; with `Cc1c[nH]c(/C=C2\C(=O)Nc3ccc(Br)cc32)c1CCC(=O)O` [Example 220, 3-[2-(5-Bromo-2-oxo-1,2-dihydroindol-3-ylidenemethyl)-4-methyl-1H-pyrrol-3-yl]-propionic acid], 0.35 µM.
On the same count and under the same terms, next, `COc1ccc2c(c1)/C(=C/c1[nH]cc(C)c1CCC(=O)O)C(=O)N2` [Example 222, 3-[2-(5-Methoxy-2-oxo-1,2-dihydroindol-3-ylidenemethyl)-4-methyl-1H-pyrrol-3-yl]-propionic acid]: less than 0.78 µM.
